Measurements taken from ChEMBL document CHEMBL1136793, “First dual aromatase-steroid sulfatase inhibitors” (J Med Chem, 2003).
Calls of active or inactive are those of the source. The calls are words filed in the database; no cut-off is given here.

Tests used:
[1] = biological target: T1, Steryl-sulfatase (Homo sapiens) (UniProt P08842); details: JEG-3, 1 uM
T1 sequence (whole entry): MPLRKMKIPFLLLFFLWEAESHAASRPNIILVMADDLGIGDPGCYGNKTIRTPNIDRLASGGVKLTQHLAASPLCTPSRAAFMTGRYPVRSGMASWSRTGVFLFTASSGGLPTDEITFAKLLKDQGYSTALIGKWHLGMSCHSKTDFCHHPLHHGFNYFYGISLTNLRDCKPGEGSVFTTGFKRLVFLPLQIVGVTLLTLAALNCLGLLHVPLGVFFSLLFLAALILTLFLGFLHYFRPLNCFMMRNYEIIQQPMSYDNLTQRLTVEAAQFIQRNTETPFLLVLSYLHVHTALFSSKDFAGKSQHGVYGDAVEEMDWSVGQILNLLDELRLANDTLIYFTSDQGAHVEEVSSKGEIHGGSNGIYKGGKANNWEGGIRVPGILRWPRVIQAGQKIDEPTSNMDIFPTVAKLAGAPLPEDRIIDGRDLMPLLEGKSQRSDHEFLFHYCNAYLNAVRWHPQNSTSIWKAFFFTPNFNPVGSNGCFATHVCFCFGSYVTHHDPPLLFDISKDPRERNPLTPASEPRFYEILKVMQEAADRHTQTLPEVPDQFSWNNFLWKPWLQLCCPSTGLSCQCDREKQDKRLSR

Aromatase [2] = biological target: T2, Aromatase (Homo sapiens, UniProt P11511); assay: Percent reduction in aromatase P450 19A1 binding inhibition after JEG-3 cell pretreatment at 1 uM (from 86.5+/-1.4% to 23+/-1%); assay type: cell-based; details: jeg-3, 1 µM
T2 sequence (P11511 whole entry): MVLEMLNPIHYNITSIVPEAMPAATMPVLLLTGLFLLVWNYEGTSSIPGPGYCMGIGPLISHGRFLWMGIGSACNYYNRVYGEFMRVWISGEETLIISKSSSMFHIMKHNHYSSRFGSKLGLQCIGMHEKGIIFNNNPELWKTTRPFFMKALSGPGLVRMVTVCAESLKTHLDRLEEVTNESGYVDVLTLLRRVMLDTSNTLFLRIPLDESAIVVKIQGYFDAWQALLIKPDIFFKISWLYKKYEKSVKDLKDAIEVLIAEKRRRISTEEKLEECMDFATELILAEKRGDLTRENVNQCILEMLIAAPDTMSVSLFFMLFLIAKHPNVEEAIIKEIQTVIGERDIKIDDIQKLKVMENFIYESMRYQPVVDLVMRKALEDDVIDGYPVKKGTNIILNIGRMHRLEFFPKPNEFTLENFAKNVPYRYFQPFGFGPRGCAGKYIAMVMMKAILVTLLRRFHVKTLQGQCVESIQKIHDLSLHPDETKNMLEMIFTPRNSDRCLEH

[3] = biological target: T1, Steryl-sulfatase (Homo sapiens); assay: In vitro inhibition of [6,7-3H]E1S binding to steroid sulfatase in JEG-3 human placental carcinoma cells; Not active
Aromatase [4] = biological target: T2, Aromatase
Description: In vitro inhibition of [1-beta-3H]-androstenedione binding to Cytochrome P450 19A1 of JEG-3 human placental carcinoma cells

[5] = biological target: T1, Steryl-sulfatase (Homo sapiens); details: 3.3 nM
Description: In vitro inhibition of [6,7-3H]E1S binding to steroid sulfatase in JEG-3 human placental carcinoma cells at 3.3 nM

With `N#Cc1ccc(N(Cc2ccc(OS(N)(=O)=O)cc2)n2cnnc2)cc1` the NS [1] was “inactive” and the Reduction (Aromatase [2]) was 63.5%.

`N#Cc1ccc(N(Cc2ccc(Br)cc2)n2cnnc2)cc1` was tested, and the NA [3] was “inactive” and the IC50 (Aromatase [4]) was 0.5 nM.

`NS(=O)(=O)Oc1ccc2c3c(c(=O)oc2c1)CCCCC3` was tested, and the inhibition [5] was 50%.
